Data: patent US12138256B2, “Treatment of cardiopulmonary disorders” (Bayer Aktiengesellschaft, priority 2021, dated 2024)
Where two headings read alike, the source gives them in different places.

Experiments:
[1] = Thermal stability of the solid (90° C., 7 days, HPLC peak areas); type: physicochemical
Procedure: 0.3 mg of the test compound, e.g. comparative example 11 were solved in 0.1 ml dimethylsulfoxide and 0.4 ml acetonitrile. Then 1.0 ml water was added. For complete dissolution the HPLC vial was shaken and sonicated. This solution was immediately analyzed by HPLC (reference at t0). 0.3 mg of the test compound was weighed into another HPLC vial. The vial was capped and stored for 7 days in a heating block at 90° C.
After this time the vial was decapped and 0.1 ml dimethylsulfoxide and 0.4 ml acetonitrile were added to the stressed compound. Then 1.0 ml water was added. For complete dissolution the HPLC vial was shaken and sonicated. The sample was analyzed by HPLC (sample after 1 week). The peak areas in percentage are used for quantification.

[2] = system: allergen-induced late airway hyperresponsiveness and inflammation in sensitized mice; experiment: Chronic asthma model: ovalbumin sensitized BALB/c mice, airway hyperresponsiveness and BAL (C-3.3); type: in vivo, mouse; conditions: for inhibition at 0.1 mg/kg: Mus musculus, dexamethasone 18 h and 1 h before each Ova challenge, comparative example 11 high dose of 100 μg/kg 2 h before
Procedure: The study was conducted to investigate whether inhalative treatment with comparative example 11 has a protective effect on the experimentally allergen-induced late airway hyperresponsiveness and inflammation in sensitized mice. Female BALB/c mice were sensitized and boosted with Ovalbumin (Ova) and aluminium hydroxide adjuvant (day 0. 14 and 21) with the exception of the negative control group receiving NaCl. On day 28 and 29. the animals were challenged with Ova aerosol. On day 30, a hyperresponsiveness test followed by bronchoalveolar lavage (BAL) was performed in all animals of all groups. The treatment groups D (10 μg) and E (100 μg) were treated with comparative example 11 inhalationally 2 h before each Ova challenge. Group A and B, the positive and negative control groups, were treated correspondingly with the vehicle. The Ova-sensitized positive control group A should show the full allergic reaction and, in contrast, the sham-sensitized negative control group B should show no allergic response. As a reference group, the animals of group C were treated inhalative with the corticosteroid dexamethasone but—due to its different mechanism of action—18 h and 1 h before each Ova challenge (on day 27, 28 and 29). On day 30, 24 h after Ova challenge in the late allergic phase, lung function—especially RL—was measured in the orotracheally intubated mice and a test on airway hyperresponsiveness was performed (inhalational methacholine provocation in doubling dose steps). […] These inhibitory effects show the successful therapeutic intervention.

Row | thermal stability [1] | Compound | further results
1 | limited thermal stability | O=C(O)CCCCN(CCc1ccccc1OCc1ccc(-c2nc3cc(C(F)(F)F)ccc3o2)cc1)C1CCCc2nc(C(=O)O)ccc21 (single isomer, unassigned) [comparative example 7, 5-[(4-carboxybutyl)(2-[2-({4-[5-(trifluoromethyl)-1,3-benzoxazol-2-yl]benzyl}oxy)phenyl]ethyl)amino]-5,6,7,8-tetrahydroquinoline-2-carboxylic acid] | –
2 | limited thermal stability | O=C(O)CCCCN(CCc1ccccc1OCc1ccc(-c2nc3cc(OC(F)(F)F)ccc3o2)cc1)C1CCCc2nc(C(=O)O)ccc21 (single isomer, unassigned) [comparative example 8, 5-[(4-carboxybutyl){2-[2-({4-[5-(trifluoromethoxy)-1,3-benzoxazol-2-yl]benzyl}oxy)phenyl]ethyl}-amino]-5,6,7,8-tetrahydroquinoline-2-carboxylic acid] | –
3 | limited thermal stability | N#Cc1ccc2oc(-c3ccc(COc4ccccc4CCN(CCCCC(=O)O)C4CCCc5nc(C(=O)O)ccc54)cc3)nc2c1 (single isomer, unassigned) [comparative example 10, 5-{(4-carboxybutyl)[2-(2-{[4-(5-cyano-1,3-benzoxazol-2-yl)benzyl]oxy}phenyl)ethyl]amino}-5,6,7,8-tetrahydroquinoline-2-carboxylic acid] | –

More lines, now with the values behind:

Row | Compound | thermal stability [1] | further results
4 | O=C(O)c1ccc(CCN(CCc2ccccc2OCc2ccc(-c3nc4cc(C(F)(F)F)ccc4o3)cc2)C2CCCc3nc(C(=O)O)ccc32)cc1 (single isomer, unassigned) [comparative example 6, 5-([2-(4-carboxyphenyl)ethyl]{2-[2-({4-[5-(trifluoromethyl)-1,3-benzoxazol-2-yl]benzyl}oxy)phenyl]-ethyl}amino)-5,6,7,8-tetrahydroquinoline-2-carboxylic acid] | limited thermal stability | –
5 | O=C(O)c1ccc(CCN(CCc2ccccc2OCc2ccc(-c3nc4cc(OC(F)(F)F)ccc4o3)cc2)C2CCCc3nc(C(=O)O)ccc32)cc1 (single isomer, unassigned) [comparative example 9, 5-([2-(4-carboxyphenyl)ethyl]{2-[2-({4-[5-(trifluoromethoxy)-1,3-benzoxazol-2-yl]benzyl}oxy)-phenyl]ethyl}amino)-5,6,7,8-tetrahydroquinoline-2-carboxylic acid] | limited thermal stability | –
6 | C[C@@H]1C[C@H]2[C@@H]3CCC4=CC(=O)C=C[C@]4(C)[C@@]3(F)[C@@H](O)C[C@]2(C)[C@@]1(O)C(=O)CO [dexamethasone, reference compound] | – | inhibition at 0.1 mg/kg ([2]; read-out: inhibition of the airway hyperresponsiveness (ED100)): 89%; inhibition at 0.1 mg/kg ([2]; read-out: inhibition of the airway hyperresponsiveness (ED150)): 70%; inhibition of the eosinophilic influx ([2]; dexamethasone inhalative): 100%
